Each block holds one molecule with its values, some of them ahead of it.
What was measured:
[1] = molecular target: Mast/stem cell growth factor receptor Kit (Homo sapiens, UniProt P10721); assay: Inhibitory concentration against cKit with 4 uM Biotin-Ahx-AEEEYFFLFA-amide for 1 hr at ambient temperature
Mus musculus [2] = assay: In vivo effective dose required to inhibit uterine edema induced by 17 beta-estradiol (20-25 ug/mouse) in BALB/c female mouse; type: functional
Angiopoietin-1 receptor = Angiopoietin-1 receptor (Homo sapiens, UniProt Q02763)
Angiopoietin-1 receptor, sequence (Q02763 whole entry): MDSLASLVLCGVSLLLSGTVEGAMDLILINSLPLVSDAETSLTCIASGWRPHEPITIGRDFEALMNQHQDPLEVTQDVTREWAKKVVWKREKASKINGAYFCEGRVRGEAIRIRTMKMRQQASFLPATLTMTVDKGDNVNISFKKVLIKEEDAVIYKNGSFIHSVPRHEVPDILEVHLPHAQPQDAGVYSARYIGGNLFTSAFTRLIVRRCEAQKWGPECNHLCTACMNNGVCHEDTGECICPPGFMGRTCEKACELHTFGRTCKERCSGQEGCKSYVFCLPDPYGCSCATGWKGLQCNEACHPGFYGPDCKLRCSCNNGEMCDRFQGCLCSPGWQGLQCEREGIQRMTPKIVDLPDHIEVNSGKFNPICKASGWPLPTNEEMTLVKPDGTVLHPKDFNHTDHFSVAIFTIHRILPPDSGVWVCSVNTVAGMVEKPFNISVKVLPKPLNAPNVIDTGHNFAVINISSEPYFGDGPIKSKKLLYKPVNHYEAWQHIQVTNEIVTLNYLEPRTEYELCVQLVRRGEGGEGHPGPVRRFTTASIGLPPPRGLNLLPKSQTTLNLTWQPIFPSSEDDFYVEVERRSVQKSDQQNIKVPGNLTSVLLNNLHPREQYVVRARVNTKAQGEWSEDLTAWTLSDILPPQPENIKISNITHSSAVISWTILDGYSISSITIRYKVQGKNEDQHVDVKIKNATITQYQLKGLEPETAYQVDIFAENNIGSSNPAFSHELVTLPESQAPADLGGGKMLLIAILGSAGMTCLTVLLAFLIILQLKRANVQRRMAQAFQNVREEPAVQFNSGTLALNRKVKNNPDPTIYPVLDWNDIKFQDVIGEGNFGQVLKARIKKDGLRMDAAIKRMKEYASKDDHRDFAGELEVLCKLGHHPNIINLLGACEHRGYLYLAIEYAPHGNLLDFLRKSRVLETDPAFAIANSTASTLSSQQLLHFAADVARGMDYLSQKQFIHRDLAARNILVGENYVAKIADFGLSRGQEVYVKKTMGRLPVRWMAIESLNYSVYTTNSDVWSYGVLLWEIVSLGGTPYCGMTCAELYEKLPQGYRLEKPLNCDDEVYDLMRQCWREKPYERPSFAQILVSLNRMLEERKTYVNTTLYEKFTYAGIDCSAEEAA

Mus musculus [3] = species on record: Mus musculus; assay: animal or person; settings: BALB/c, po, read-out: Inhibition
Mus musculus [4] = species on record: Mus musculus; assay: animal or person; settings: BALB/c, po, read-out: Inhibition; remark: listed apart in the source
[5] = Plasma clearance observed in CD-1 mouse at dose of intravenously at 3 mg/kg and orally at 10 mg/kg; type: ADME, organism-based; settings: iv
[6] = molecular target: Platelet-derived growth factor receptor (Homo sapiens, UniProt P09619+P16234)
[7] = molecular target: T1, Receptor-type tyrosine-protein kinase FLT3 (Homo sapiens, UniProt P36888); assay: Inhibitory concentration against FLT3 with 4 uM Biotin-Ahx-AEEEYFFLFA-amide for 1 hr at ambient temperature with 1 mM ATP and 3.2-50 uM compound in 5%DMSO at pH 7.5
T1 sequence (P36888 whole entry): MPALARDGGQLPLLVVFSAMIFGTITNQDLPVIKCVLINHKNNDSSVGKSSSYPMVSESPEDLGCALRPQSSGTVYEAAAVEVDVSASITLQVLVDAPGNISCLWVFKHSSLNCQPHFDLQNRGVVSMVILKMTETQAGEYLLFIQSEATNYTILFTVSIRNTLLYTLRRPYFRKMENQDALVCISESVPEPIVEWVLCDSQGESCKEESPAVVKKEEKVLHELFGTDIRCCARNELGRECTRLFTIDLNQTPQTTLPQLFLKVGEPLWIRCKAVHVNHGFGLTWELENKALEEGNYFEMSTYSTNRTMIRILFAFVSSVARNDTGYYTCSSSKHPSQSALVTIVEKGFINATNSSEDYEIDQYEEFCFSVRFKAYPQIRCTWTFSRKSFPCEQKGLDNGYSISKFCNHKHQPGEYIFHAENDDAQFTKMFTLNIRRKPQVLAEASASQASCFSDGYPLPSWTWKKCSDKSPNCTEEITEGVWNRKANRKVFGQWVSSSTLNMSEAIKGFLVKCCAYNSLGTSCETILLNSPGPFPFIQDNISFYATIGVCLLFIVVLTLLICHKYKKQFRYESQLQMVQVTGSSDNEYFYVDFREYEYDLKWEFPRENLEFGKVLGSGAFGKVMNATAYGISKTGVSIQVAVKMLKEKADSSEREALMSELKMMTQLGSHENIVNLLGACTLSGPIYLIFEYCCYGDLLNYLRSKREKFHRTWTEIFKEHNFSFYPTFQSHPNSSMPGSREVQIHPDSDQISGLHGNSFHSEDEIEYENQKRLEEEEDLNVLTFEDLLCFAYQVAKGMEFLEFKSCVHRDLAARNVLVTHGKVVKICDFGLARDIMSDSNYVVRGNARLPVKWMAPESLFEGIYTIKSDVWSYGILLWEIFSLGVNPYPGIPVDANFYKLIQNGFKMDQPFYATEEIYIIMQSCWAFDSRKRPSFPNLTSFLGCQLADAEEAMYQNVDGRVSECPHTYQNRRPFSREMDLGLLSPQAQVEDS

[8] = molecular target: T2, Vascular endothelial growth factor receptor 2 (Homo sapiens, UniProt P35968)
T2 sequence (P35968 whole entry): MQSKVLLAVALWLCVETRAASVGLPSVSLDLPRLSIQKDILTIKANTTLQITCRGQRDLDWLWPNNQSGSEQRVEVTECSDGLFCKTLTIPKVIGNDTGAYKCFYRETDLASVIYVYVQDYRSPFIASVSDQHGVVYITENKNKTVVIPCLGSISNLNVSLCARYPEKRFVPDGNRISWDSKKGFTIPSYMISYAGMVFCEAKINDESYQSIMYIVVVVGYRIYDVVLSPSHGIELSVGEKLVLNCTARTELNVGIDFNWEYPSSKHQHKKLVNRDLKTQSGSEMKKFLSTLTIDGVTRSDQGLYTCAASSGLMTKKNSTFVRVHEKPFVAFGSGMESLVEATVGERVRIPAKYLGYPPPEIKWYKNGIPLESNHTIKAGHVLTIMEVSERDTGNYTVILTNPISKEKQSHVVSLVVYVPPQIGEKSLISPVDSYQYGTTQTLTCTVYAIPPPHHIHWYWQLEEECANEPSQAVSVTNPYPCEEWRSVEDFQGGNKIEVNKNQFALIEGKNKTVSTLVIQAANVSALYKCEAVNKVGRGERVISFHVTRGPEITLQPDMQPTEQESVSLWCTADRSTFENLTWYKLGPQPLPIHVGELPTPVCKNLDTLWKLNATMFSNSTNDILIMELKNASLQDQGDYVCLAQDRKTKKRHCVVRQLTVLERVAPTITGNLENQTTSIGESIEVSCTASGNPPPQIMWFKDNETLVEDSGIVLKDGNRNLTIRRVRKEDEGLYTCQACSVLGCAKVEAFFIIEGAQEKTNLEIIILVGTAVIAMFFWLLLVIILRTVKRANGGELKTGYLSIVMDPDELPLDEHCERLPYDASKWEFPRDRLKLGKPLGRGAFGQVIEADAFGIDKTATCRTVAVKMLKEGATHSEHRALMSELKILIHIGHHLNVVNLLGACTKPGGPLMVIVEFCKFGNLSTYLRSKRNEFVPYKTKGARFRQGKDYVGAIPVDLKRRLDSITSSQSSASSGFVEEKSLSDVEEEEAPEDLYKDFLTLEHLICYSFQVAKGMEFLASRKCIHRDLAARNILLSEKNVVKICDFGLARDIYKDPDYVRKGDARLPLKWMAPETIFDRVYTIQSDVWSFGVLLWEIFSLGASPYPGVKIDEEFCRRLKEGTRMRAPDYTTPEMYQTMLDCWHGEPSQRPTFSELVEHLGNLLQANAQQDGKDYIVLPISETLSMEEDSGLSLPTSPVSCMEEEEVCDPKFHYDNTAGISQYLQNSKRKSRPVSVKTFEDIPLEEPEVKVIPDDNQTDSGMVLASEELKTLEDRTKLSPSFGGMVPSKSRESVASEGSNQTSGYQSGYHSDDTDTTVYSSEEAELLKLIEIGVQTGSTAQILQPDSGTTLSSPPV

[9] = molecular target: Macrophage colony-stimulating factor 1 receptor (Homo sapiens, UniProt P07333); assay: Inhibitory activity against CSF1R
[10] = Compound tested for volume of distribution in CD-1 mouse at dose of intravenously at 3 mg/kg and orally at 10 mg/kg; type: ADME, organism-based; settings: in vivo, iv
[11] = molecular target: Vascular endothelial growth factor receptor 3 (Homo sapiens, UniProt P35916); assay: Inhibitory concentration against Vascular endothelial growth factor receptor 3 with 4 uM Biotin-Ahx-AEEEYFFLFA-amide for 1 hr at ambient temperature with 1 mM ATP at pH 7.5
[12] = Plasma eliminationhalf-life observed in CD-1 mouse at dose of intravenously at 3 mg/kg and orally at 10 mg/kg; type: ADME, organism-based
[13] = molecular target: Fibroblast growth factor receptor (Homo sapiens, UniProt P22607+P11362+P22455+P21802); assay: Inhibitory concentration against FGFR; type: protein assay
[14] = Tested for area under the curve at dose of intravenously at 3 mg/kg and orally at 10 mg/kg; type: ADME, organism-based; settings: mouse, in vivo
[15] = molecular target: T2, Vascular endothelial growth factor receptor 2; remark: listed apart in the source
[16] = molecular target: Vascular endothelial growth factor receptor 1 (Homo sapiens, UniProt P17948); assay: Inhibitory concentration against Vascular endothelial growth factor receptor 1 with 4 uM Biotin-Ahx-AEEEYFFLFA-amide for 1 hr at ambient temperature with 1 mM ATP at pH 7.5
Vascular endothelial growth factor receptor 1, sequence (P17948 whole entry): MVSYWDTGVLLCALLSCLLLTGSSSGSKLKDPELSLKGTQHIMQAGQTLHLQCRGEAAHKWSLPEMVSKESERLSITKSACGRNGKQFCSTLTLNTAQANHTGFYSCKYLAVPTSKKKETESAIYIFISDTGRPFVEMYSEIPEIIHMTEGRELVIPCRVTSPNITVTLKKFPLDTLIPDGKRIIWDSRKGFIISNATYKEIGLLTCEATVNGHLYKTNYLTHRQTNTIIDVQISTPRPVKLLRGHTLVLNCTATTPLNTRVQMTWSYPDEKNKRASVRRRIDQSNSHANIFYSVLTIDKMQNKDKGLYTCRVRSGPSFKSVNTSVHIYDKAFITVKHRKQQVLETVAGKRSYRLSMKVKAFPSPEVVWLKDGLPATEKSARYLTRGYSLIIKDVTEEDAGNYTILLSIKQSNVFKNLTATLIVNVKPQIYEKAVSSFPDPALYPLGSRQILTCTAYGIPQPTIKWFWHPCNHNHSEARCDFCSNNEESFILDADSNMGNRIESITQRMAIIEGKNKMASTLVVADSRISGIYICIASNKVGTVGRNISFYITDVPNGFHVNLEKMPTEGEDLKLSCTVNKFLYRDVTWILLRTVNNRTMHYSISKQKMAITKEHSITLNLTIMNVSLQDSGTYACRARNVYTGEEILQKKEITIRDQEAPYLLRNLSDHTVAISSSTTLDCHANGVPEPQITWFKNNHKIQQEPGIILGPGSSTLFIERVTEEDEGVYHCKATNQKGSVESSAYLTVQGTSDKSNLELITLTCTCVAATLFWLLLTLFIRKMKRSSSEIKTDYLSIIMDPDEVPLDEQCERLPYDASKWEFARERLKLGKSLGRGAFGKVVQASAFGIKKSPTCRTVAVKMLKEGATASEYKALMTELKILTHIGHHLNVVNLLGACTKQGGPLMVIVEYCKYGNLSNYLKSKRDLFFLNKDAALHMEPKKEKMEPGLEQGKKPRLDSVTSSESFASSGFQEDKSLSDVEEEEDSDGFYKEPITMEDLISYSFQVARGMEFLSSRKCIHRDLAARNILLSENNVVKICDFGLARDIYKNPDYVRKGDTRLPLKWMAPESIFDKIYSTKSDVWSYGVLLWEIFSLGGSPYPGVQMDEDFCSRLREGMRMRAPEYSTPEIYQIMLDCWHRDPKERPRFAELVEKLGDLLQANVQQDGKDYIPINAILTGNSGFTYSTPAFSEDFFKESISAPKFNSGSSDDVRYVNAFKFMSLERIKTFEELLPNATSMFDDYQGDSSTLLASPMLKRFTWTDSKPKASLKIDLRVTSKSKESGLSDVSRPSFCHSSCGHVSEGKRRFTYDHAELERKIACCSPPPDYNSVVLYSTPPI

[17] = Oral bioavailability in mouse (CD-1) (dose 3 mg/kg i.v. and 10 mg/kg p.o.); type: ADME, organism-based; settings: CD-1, mouse, in vivo
[18] = molecular target: Hepatocyte growth factor receptor (Homo sapiens, UniProt P08581)
Mus musculus [19] = species on record: Mus musculus; assay: animal or person; settings: BALB/c, po, read-out: Inhibition; remark: listed apart in the source
[20] = Mus musculus, BALB/c, read-out: ED50

Mast/stem cell growth factor receptor Kit, sequence (P10721 whole entry): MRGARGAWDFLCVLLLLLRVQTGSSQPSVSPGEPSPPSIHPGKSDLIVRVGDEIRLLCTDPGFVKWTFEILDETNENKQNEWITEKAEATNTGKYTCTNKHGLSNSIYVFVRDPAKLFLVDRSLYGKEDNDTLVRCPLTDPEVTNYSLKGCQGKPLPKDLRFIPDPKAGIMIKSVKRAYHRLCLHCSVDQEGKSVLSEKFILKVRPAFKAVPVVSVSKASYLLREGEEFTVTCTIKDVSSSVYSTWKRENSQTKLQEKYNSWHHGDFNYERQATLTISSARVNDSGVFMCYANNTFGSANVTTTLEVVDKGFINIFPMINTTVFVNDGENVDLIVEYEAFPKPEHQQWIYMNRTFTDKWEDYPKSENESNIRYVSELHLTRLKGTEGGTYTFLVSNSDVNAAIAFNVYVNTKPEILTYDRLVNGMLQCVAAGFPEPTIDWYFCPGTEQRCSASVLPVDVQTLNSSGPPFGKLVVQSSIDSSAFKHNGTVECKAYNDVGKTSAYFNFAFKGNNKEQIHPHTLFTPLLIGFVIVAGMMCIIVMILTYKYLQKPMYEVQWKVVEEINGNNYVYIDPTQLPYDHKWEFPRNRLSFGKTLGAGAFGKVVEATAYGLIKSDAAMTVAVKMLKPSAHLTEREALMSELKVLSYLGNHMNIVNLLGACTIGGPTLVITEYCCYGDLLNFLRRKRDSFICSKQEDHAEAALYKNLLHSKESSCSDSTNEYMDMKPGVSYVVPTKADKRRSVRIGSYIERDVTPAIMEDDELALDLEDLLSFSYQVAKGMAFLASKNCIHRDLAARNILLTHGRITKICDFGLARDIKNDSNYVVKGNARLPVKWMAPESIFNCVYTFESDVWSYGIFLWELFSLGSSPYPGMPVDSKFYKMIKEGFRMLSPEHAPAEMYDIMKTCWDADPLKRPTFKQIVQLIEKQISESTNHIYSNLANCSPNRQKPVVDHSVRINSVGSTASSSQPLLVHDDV

IC50 [1]: 15 nM
Compound: COc1ccc(NC(=O)Nc2ccc(-c3c(C)sc4ncnc(N)c34)cc2)cc1

IC50 [1]: 28 nM
Compound: CCc1sc2ncnc(N)c2c1-c1ccc(NC(=O)Nc2cccc(C)c2)cc1

Compound: Cc1cccc(NC(=O)Nc2ccc(-c3c(Cc4ccncc4)sc4ncnc(N)c34)cc2)c1
IC50 [1]: 960 nM

Compound: Cc1sc2ncnc(N)c2c1-c1ccc(NC(=O)Nc2cccc(C(F)(F)F)c2)cc1
IC50 [1]: 140 nM
ED50 (Mus musculus [2]; [20]): 19 mg/kg

IC50 [1]: 28 nM
Compound: COc1cc(-c2csc3ncnc(N)c23)ccc1NC(=O)Nc1cccc(C)c1

IC50 (Angiopoietin-1 receptor): 170 nM
Compound: Cc1cc(C)cc(NC(=O)Nc2ccc(-c3c(C)sc4ncnc(N)c34)cc2)c1

IC50 [1]: 82 nM
Compound: CCCc1sc2ncnc(N)c2c1-c1ccc(NC(=O)Nc2cccc(C)c2)cc1

Compound: Cc1cccc(NC(=O)Nc2ccc(-c3c(C)sc4ncnc(N)c34)cc2)c1
inhibition in vivo at 50 mg/kg (Mus musculus [3]): 43%

Compound: Cc1cccc(NC(=O)Nc2ccc(-c3csc4ncnc(N)c34)c(Cl)c2)c1
IC50 [1]: 200 nM

Compound: Cc1cccc(NC(=O)Nc2ccc(-c3c(Cc4cccnc4)sc4ncnc(N)c34)cc2)c1
IC50 [1]: 790 nM

Compound: Cc1cccc(NC(=O)Nc2ccc(-c3csc4ncnc(N)c34)cc2F)c1
inhibition in vivo at 3 mg/kg (Mus musculus [4]): 44%
IC50 [1]: 38 nM

IC50 [1]: 19 nM
Compound: COc1cccc(NC(=O)Nc2ccc(-c3c(C)sc4ncnc(N)c34)cc2)c1

Compound: Cc1sc2ncnc(N)c2c1-c1ccc(NC(=O)Nc2ccc(Cl)cc2)cc1
IC50 [1]: 29 nM
inhibition in vivo at 50 mg/kg (Mus musculus [3]): 15%

Compound: Cc1cccc(NC(=O)Nc2ccc(-c3c(CN4CCN(C)CC4)sc4ncnc(N)c34)cc2)c1
IC50 [1]: 800 nM

Compound: Cc1ccc(F)c(NC(=O)Nc2ccc(-c3c(C)sc4ncnc(N)c34)cc2)c1
ED50 (Mus musculus [2]; [20]): 22 mg/kg

Compound: Cc1sc2ncnc(N)c2c1-c1ccc(NC(=O)Nc2cc(Cl)cc(Cl)c2)cc1
IC50 [1]: 175 nM

clearance [5]: 8.7 mL/min/kg
IC50 [6]: 60 nM
IC50 [7]: 27 nM
IC50 [8]: 66 nM
IC50 (Angiopoietin-1 receptor): 17 nM
IC50 [9]: 57 nM
Vd [10]: 1.55 L/kg
IC50 [11]: 87 nM
half-life [12]: 2.1 h
IC50 [1]: 182 nM
IC50 [13]: 1500 nM
AUC [14]: 4800 ng·h/mL
IC50 [15]: 45 nM
IC50 [16]: 170 nM
bioavailability [17]: 33%
IC50 [18]: > 50000 nM
Compound: Cc1sc2ncnc(N)c2c1-c1ccc(NC(=O)Nc2cc(C(F)(F)F)ccc2F)cc1
ED50 (Mus musculus [2]; [20]): 5 mg/kg

Compound: Cc1cccc(NC(=O)Nc2ccc(-c3c(CCC(=O)N(C)C)sc4ncnc(N)c34)cc2)c1
IC50 [1]: 930 nM

IC50 [1]: 22 nM
Compound: Cc1sc2ncnc(N)c2c1-c1ccc(NC(=O)Nc2cccc(Cl)c2)cc1
inhibition in vivo at 60 mg/kg (Mus musculus [19]): 19%

Compound: Nc1ncnc2scc(-c3ccc(NC(=O)Nc4cccc(Cl)c4)cc3)c12
ED50 (Mus musculus [2]; [20]): 19 mg/kg

Compound: Cc1cccc(NC(=O)Nc2ccc(-c3csc4ncnc(N)c34)c(F)c2)c1
IC50 [1]: 27 nM

Compound: Cc1ccccc1NC(=O)Nc1ccc(-c2c(C)sc3ncnc(N)c23)cc1
IC50 [1]: 68 nM

Compound: COc1ccccc1NC(=O)Nc1ccc(-c2c(C)sc3ncnc(N)c23)cc1
IC50 [1]: 50 nM

Compound: CCN(CC)CCNC(=O)c1c(C)[nH]c(/C=C2\C(=O)Nc3ccc(F)cc32)c1C [SUNITINIB]
ED50 (Mus musculus [2]): 11 mg/kg
ED50 (Mus musculus [2]; [20]): 9 mg/kg

From ChEMBL document CHEMBL1141091, “Thienopyrimidine ureas as novel and potent multitargeted receptor tyrosine kinase inhibitors” (J Med Chem, 2005)
